In patent US8920851B2, “Treatment of neurodegenerative diseases” (Velacor Therapeutics Pty Ltd, priority 2006, dated 2014):
“Also recorded” adds a separate entry of the source. Read-outs that look alike come from different tables or passages of the source.

Tests used:
Akt = Akt phosphorylation by immunoblot in PC3 prostate carcinoma cells; assay type: cell-based, human; conditions: for Akt activation: ratio of phosphorylated Akt to total Akt versus control: serum starved PC3 cells, 500 μM, 1 hour, densitometry; for effect of hydrogen peroxide on sodium selenate induced reduction of Akt phosphorylation: sodium selenate 500 μM
Protocol: Such dephosphorylation may be the result of a direct inhibitory effect on the Akt protein itself, or alternatively, can be similarly achieved indirectly by boosting a negative regulator or inhibiting a positive regulator of Akt phosphorylation. […] PC3 prostate carcinoma cells were plated in 100 mm dishes, and when 70-80% confluent serum starved overnight. […] Cells were lysed, and the level of Akt Ser473 phosphorylation determined by immunoblot analysis with an activation specific antibody, and comparison made to levels of Akt protein expressed. To determine the effect on purified Akt, similarly plated but untreated PC3 cells were lysed in RIPA (minus phosphatase inhibitors), a stringent cell lysis buffer that minimizes maintenance of protein-protein complexes. […] The immunoprecipitated protein was then resolved and the level of activated Akt determined by immunoblot analysis as described above.
A reduction in net Akt activity could be achieved indirectly by either preventing the initial Akt phosphorylation, or alternatively, increasing Akt dephosphorylation [Kohn et. al. 1996]. […] Initially okadaic acid, a polyether toxin from red-tide algae (and causative agent of diarrhoetic shellfish poisoning) which inhibits the phospho-protein phosphatases PP1 and PP2A, two phosphatases implicated in the regulation of Akt dephosphorylation was used [Fernandez et al., 2002]. 5×10^5 PC3 prostate carcinoma cells were plated per well of a 6 well plate, allowed attach for 8 h, and then serum starved overnight. […] Lysed cells were resolved by SDS-PAGE, then probed for Akt phosphorylation at the Ser473 residue by immunoblot analysis with an antibody that specifically recognizes Akt when phosphorylated at this site, and comparison made with the total levels of Akt protein expressed (FIG. 2A).
This panel included tautamycin 500 nM (PP1), okadaic acid 500 nM (low dose PP2A>PP1), endothall A (PP2A) 100 μM, calyculin A 2 nM (low dose PP1>PP2A), calyculin A 10 nM (high dose inhibits PP1 and PP2A) and cyclosporine A 400 ng/ml (PP2B). […] Again, lysed cells were resolved by SDS-PAGE, then membranes probed for Akt phosphorylation at the Ser^473 residue by immunoblot analysis with an antibody that specifically recognizes Akt when phosphorylated at this site, and comparison made with the total levels of Akt protein expressed.
5×10^5 PC3 prostate carcinoma cells were plated per well in a 6-well plate, allowed to attach for 8 h, and then serum starved overnight. […] Equal amounts of whole cell lysates were resolved, and then subjected to immunoblot analysis to determine the level of phosphorylated Akt Ser^473. Comparison was then made with the total level of Akt protein expressed.
The phosphorylation status of Akt in whole cell lysates was determined using activation specific antibodies.
Other inorganic (sodium selenite, selenium dioxide, selenium sulphide and selenious acid) and organic (methylselenocysteine, selenocystine) selenium species were tested for their ability to affect Akt activation. All forms were dissolved in water with the exception of selenium sulphide which was solubilised in DMSO, and added to serum starved PC3 cells at a concentration of 500 μM for 1 hour, Whole cell lysates were then resolved, and the activation status of Akt determined by immunoblotting with an antibody that specifically recognizes Akt when phosphorylated at the Ser473 site, as well as the total level of Akt expression (pan Akt). To quantify the degree of Akt activation, immunoblots were digitalised, and the ratio of phosphorylated Akt to total Akt determined by densitometry.

[1] = target: T1, human PP2A A-C heterodimer (Homo sapiens, UniProt P67775); assay type: biochemical
T1 construct: purified PP2A A-C dimer purified from human red blood cells; purchased Upstate 14-111 (lot #28002); host or cells: human red blood cells (native purification)
T1 sequence (P67775 whole entry): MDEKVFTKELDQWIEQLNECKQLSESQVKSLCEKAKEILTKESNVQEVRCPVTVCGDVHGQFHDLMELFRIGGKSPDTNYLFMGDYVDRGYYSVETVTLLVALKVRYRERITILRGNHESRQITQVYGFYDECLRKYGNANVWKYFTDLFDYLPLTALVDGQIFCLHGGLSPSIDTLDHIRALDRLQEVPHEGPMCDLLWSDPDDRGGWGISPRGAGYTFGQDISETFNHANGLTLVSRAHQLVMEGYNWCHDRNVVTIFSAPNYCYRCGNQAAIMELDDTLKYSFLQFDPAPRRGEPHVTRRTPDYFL
T1 sequence (P30153 2-589 partner limits assumed): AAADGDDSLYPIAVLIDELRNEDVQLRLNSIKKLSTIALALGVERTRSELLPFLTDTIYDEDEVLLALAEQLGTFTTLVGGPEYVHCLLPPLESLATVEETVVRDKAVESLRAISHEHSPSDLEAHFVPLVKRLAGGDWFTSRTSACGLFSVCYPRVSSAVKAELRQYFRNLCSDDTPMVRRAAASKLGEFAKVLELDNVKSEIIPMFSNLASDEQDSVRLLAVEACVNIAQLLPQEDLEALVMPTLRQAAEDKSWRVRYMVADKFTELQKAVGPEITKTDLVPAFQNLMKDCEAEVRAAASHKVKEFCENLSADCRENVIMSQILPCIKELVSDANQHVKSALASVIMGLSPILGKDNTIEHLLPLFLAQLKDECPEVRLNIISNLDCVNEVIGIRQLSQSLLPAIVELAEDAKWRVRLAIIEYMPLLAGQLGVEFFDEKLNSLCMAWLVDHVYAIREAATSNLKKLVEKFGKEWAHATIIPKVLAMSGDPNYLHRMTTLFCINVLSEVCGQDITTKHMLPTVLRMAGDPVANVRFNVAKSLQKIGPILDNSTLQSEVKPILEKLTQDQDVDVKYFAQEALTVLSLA
Protocol: In initial assays a chemical substrate of phosphatase enzymatic action, para-nitrophennylphosphate (pNPP) was used, which following hydrolysis of the phosphate moiety generates para-nitrophenol, an intensely yellow chromogen which is soluble under alkaline conditions. […] Absorbance of each sample was measured in duplicate at 405 nm with 590 nm as a reference. PP2A activity was calculated using the following equation: activity=(sample vol in liters)×A405/1.78×104M^−1 cm^−1 (extinction coefficient)×0.25 cm×15 minutes×0.05 U enzyme Data is presented as mean relative phosphatase activity ±SEM from at least three independent experiments.
Para-nitrophennylphosphate (PNPP) is a chemical substrate of phosphatase enzymes, which following hydrolysis of the phosphate moiety generates para-nitrophenol, an intensely yellow chromogen, soluble under alkaline conditions. In assays measuring relative phosphatase activity, 0.05 U of purified PP2A was mixed with 5 μl of 40 mM NiCl2 and 5 μl of BSA solution (5 mg/ml) in a microcentrifuge tube. Various treatments were added as indicated, and the volume adjusted to 80 μl with pNPP assay buffer. Samples were pre-incubated at 37° C. for 15 min. pNPP substrate was freshly prepared before each assay by dissolving 1.5 mg/ml pNPP in 50 mM Tris-HCl, pH 7.0. To start the phosphatase reaction, 120 μl of pNPP substrate was added, and samples incubated for a further 15 min at 37° C. Absorbance of each sample was measured in duplicate at 405 nm with 590 nm as a reference. PP2A activity was calculated using the following equation: activity=(Sample volume in liters)×A405/1.78×10^4M^−1cm^−1 (Extinction coefficient)×0.25 cm×15 min×0.05 U enzyme.

PP2A A-C dimer = target: T2, PP2A A-C dimer (Homo sapiens, UniProt P67775); experiment: Phosphopeptide / malachite green assay with purified PP2A; assay type: biochemical; conditions: 50 μM of each selenium compound
T2 construct: purified PP2A A-C dimer purified from human red blood cells; purchased Upstate 14-111 (lot #28002); host or cells: human red blood cells (native purification)
T2 sequence (P67775 whole entry): as the sequence (P67775 whole entry) above
T2 sequence (P30153 2-589 partner limits assumed): as the sequence (P30153 2-589 partner limits assumed) above
Protocol: The amount of inorganic phosphate released by enzymatic activity was determined by the addition of malachite green, and absorbance read at 590 nm. Malachite green forms a stable green complex in the presence of molybdate and orthophosphate, allowing the concentration of inorganic phosphate present to be measured. Data is presented as mean absorbance at 590 nm from at least three independent experiments, ±SEM.
1 mg of synthetic phosphopeptides K-R-pT-I-R-R (Upstate #12-219) and R-R-A-pS-V-A (Upstate #12-220) were dissolved in 1.10-1.285 ml of dH2O to prepare a 1 mM solution, then aliquoted and stored at −20° C. until use. 0.01-0.05 U of purified PP2A A-C dimer purified from human red blood cells, or 0.05 U of rabbit PP1 purified from skeletal muscle was mixed with 500 μM of phosphopeptide and incubated in the presence of various treatments as indicated at 37° C. on a heating block for 15 min. Each reaction was made up to a total volume of 25 μl with pNPP buffer (50 mM Tris-HCl, pH 7.0, 100 μM CaCl2). The enzyme reaction was terminated by adding 100 μl of malachite green solution (0.034% malachite green in 10 mM ammonium molybdate, 1 N HCl, 3.4% ethanol, 0.01% Tween-20). Malachite green forms a stable green complex in the presence of molybdate and orthophosphate, allowing the amount of inorganic phosphate present to be measured. Absorbance was read in duplicate for each sample at 590 nm.

[2] = tested on: PC3 prostate carcinoma cells; experiment: Intracellular redox state assay (DCFDA, flow cytometry)
Protocol: 1×10^6 PC3 prostate carcinoma cells were plated in 60 mm dishes, allowed to attach for 8 h, and serum starved overnight. Cells were incubated with DCFDA 5 μM for 15 min prior to treatment.
The proportion of fluorescent cells was then determined by flow cytometry.
Intracellular redox state was determined using 2′,7′-dichlorodihydrofluorescein diacetate (DCFDA). […] Cells were equilibrated with 5 μM of DCFDA for 15 min prior to various treatments. Adherent cells were then harvested, washed twice with PBS and the proportion of fluorescent cells determined immediately by flow cytometry.

p70S6K = assay type: cell-based, human; conditions: PC3 cells; LY294002 50 μM 1 hour, sodium selenate 500 μM 1 hour, okadaic acid 500 nM
Protocol: 5×10^5 PC3 prostate carcinoma cells were plated per well of a 6-well plate, allowed to attach for 8 hours, then serum starved overnight. […] Equal amounts of whole cell lysates (75 μg) were resolved by SDS-PAGE, and the level of p70S6K phosphorylation determined by immunoblot analysis with an antibody that specifically recognizes the p70S6K protein when phosphorylated on Thr389. Comparison is made with the protein loading control β tubulin.

[3] = target: T3, purified human PP2A A-C dimer (Homo sapiens, UniProt P67775); experiment: Free sulfhydryl groups in purified PP2A (Ellman's assay); assay type: biochemical; conditions: 0.01 U PP2A, 10 mM of each agent, 15 min at 37° C.
T3 construct: purified PP2A A-C dimer purified from human red blood cells; purchased Upstate 14-111 (lot #28002); host or cells: human red blood cells (native purification)
T3 sequence (P67775 whole entry): as the sequence (P67775 whole entry) above
T3 sequence (P30153 2-589 partner limits assumed): as the sequence (P30153 2-589 partner limits assumed) above
Excerpt: Inactivating reversible oxidation of protein phosphatases involves the modification of a critical cysteine residue within the catalytic domain, ultimately leading to the formation of either intramolecular disulphide or sulphenyl-amide bonds. […] Ellman's reagent (5,5′-Dithio-bis(2-nitrobenzoic acid), DTNB) rapidly forms a disulphide bond with free sulfhydryl groups with the release of chromogenic thiolate ions. […] The quantity of free sulfhydryl groups present within the phosphatase was then determined by the addition of Ellman's reagent and subsequent measurement of absorbance at 412 nm (FIG. 5C).
The change in free sulfhydryl groups in purified PP2A following various treatments was determined using Ellman's Reagent. To 0.01 U of PP2A was added to 37.5 μl of dilution buffer (30 mM Tris-HCl, 3 mM EDTA, pH 8.2), 12.5 μl DTNB reagent (Ellman's reagent) and 200 μl of methanol. Samples were incubated for 5 min at RT, and then extinction measured in duplicate for each at 412 nm.

GSK-3β = GSK-3β Ser9 phosphorylation by immunoblot in PC3 cells; assay type: cell-based, human; conditions: densitometry, sodium selenate 500 μM 3 h, LY294002 50 μM 1 h
Excerpt: The metabolic effects of insulin on glycogen synthesis are mediated by glycogen synthase kinase-3 (GSK-3), a direct downstream substrate of Akt. GSK-3 is a ubiquitously expressed serine/threonine kinase that phosphorylates and inactivates glycogen synthase. In response to activation of the insulin receptor, Akt phosphorylates and inactivates the repressor GSK-3, thereby stimulating glycogen synthesis [Cross et al., 1995]. […] Resolved whole cell lysates were subjected to immunoblot analysis with an antibody that specifically recognizes GSK-3β only when phosphorylated at Ser9, a site critical for its kinase activity, and comparison made with the cytoskeletal protein β-tubulin as a loading control.

PP2A = target: T4, PP2A (Homo sapiens, UniProt P67775); experiment: PP2A immunoprecipitation from treated PC3 cells and phosphatase assay; assay type: cell-based; conditions: PC3 cells treated 1 hour; sodium selenate 500 μM, endothall A 100 μM
T4 construct: the phosphatase activity of the general pool of intracellular PP2A; endogenous in cells; host or cells: PC3 prostate carcinoma cells
T4 sequence (P67775 whole entry): as the sequence (P67775 whole entry) above
T4 sequence (P30153 2-589 partner limits assumed): as the sequence (P30153 2-589 partner limits assumed) above
Protocol: Free phosphate was removed by passing cell lysates through desalting columns, and measured phosphatase activity using a phosphor-serine peptide and malachite green.
1×10^6 PC3 cells were plated in 60 mm plates and allowed attach for 8 h, then serum starved over night. Following various treatments as indicated, the media was aspirated and cells washed once with TBS. Cells were lysed in 0.3 ml of lysis buffer (20 mM Tris-HCl, pH 7.0, 1% Igepal-CA, 2 mM EDTA, 2 mM EGTA, 1× Complete Protease Inhibitor Cocktail) and phosphates removed by passing the lysate through a 2 ml Zeba Desalt Spin Column (Pierce #89890). Protein concentration of the desalted lysate was determined by the BCA assay as previously described. 100-150 μg of total protein was immunoprecipitated with 4 μg of anti-PP2A monoclonal antibody and 30 μl of Protein A-sepharose slurry at 4° C. for 2 h. Samples were then pelleted at 14,000 rpm for 1 min, washed three times in excess TBS and once with pNPP assay buffer. After the final spin all of the supernatant was carefully removed and 500 μM of phosphor-threonine peptide in a final volume of 80 μl added to the beads. Samples were incubated at 30° C. for 10 min with agitation, and the reaction terminated by the addition of malachite green solution. Absorbance was read at 590 nm for each sample in duplicate.

Question: What does the source list for `C[Se]CC[C@H](N)C(=O)O` [selenomethionine, reference compound]?
Answer: Akt phosphorylation at Ser473 (Akt; PC3 cells, 500 μM of each compound, various timepoints): did not affect the level of Akt phosphorylation; also recorded: did not affect the level of phosphorylation of Akt; PP2A phosphatase activity, pNPP as substrate ([1]; 5 mM of each selenium compound): neither sodium selenite nor selenomethionine significantly affected PP2A phosphatase activity; PP2A phosphatase activity, serine phosphopeptide as substrate (PP2A A-C dimer): neither sodium selenite nor selenomethionine significantly affected PP2A phosphatase activity

Question: Which “Akt activation: ratio of phosphorylated Akt to total Akt versus control” value (shortened to “Akt activation: ratio”) (Akt) does the source give for `O=[Se]=O` [selenium dioxide] here?
Answer: induce activation of Akt above control (con) levels

Question: `CC(=O)N[C@@H](CS)C(=O)O` [NAC, N-acetylcysteine] was tested. Which “basal proportion of fluorescent cells (ROS)” value ([2]; 1 h, sodium selenate 500 μM, NAC 1 mM) did it give?
Answer: small reduction in the basal proportion of fluorescent cells

Question: Which “effect of PPP inhibitor pretreatment on sodium selenate induced Akt Ser473 dephosphorylation” value (Akt; PC3 cells, inhibitor 30 min (okadaic acid 500 nM, endothall A 100 μM, tautamycin 500 nM, calyculin A 2 nM, cyclosporine A 400 ng/ml), then sodium selenate 500 μM 1 h) does the source give for `C=C1[C@@H](O)[C@@H]2O[C@]3(CC[C@H](/C=C/[C@@H](C)[C@@H]4CC(C)=C[C@@]5(O[C@H](C[C@@](C)(O)C(=O)O)CC[C@H]5O)O4)O3)CC[C@H]2O[C@@H]1[C@@H](O)C[C@H](C)[C@H]1O[C@@]2(CCCCO2)CC[C@H]1C` [okadaic acid] here?
Answer: completely blocked sodium selenate induced Akt dephosphorylation

Question: What about the “effect of pretreatment on the sodium selenate induced reduction of Akt phosphorylation” value (Akt; PC3 cells, okadaic acid 5 nM 30 min, then sodium selenate 500 μM 1 h) of the same compound?
Answer: unaffected

Question: And the “Akt Ser473 phosphorylation in non-selenate controls” value (Akt; PC3 cells, okadaic acid 1000 nM)?
Answer: boosts Akt phosphorylation in non-selenate controls

Question: What about the “effect of pretreatment on the sodium selenate induced reduction of Akt phosphorylation” value (Akt; PC3 cells, okadaic acid 1000 nM 30 min, then sodium selenate 500 μM 1 h) of the same compound?
Answer: completely abolishes the inhibitory effect of sodium selenate

Question: What about the “PP2A phosphatase activity (pNPP)” value ([1]; 0.05 U PP2A dimer, 30 min at 37° C., sodium selenate 5 mM, okadaic acid 500 nM) of the same compound?
Answer: completely abolished

Question: And the “p70S6K phosphorylation on Thr389” value (p70S6K)?
Answer: boosts the level of phosphorylation observed

Question: Which results are given for `OO` [hydrogen peroxide]?
Answer: effect of hydrogen peroxide on sodium selenate induced reduction of Akt phosphorylation (Akt; PC3 cells, hydrogen peroxide 0.25 mM for 10 min): unaffected; effect of hydrogen peroxide on sodium selenate induced reduction of Akt phosphorylation (Akt; PC3 cells, hydrogen peroxide 1 mM for 10 min): completely abolished the dephosphorylating effect of sodium selenate; number of free sulfhydryl groups in PP2A [3]: significantly reduced the number of free sulfhydryl groups; generation of intracellular oxygen free radicals ([2]; hydrogen peroxide 500 μM, 10 min): marked increase in the generation of intracellular oxygen free radicals

Question: For `S=[Se]=S` [selenium sulfide], which “Akt activation: ratio” value (Akt) is on record?
Answer: induce activation of Akt above control (con) levels

Question: `O=[Se](O)O` [selenous acid] was tested. Which “Akt activation: ratio” value (Akt) did it give?
Answer: induce activation of Akt above control (con) levels

Question: For `O=c1cc(N2CCOCC2)oc2c(-c3ccccc3)cccc12` [LY294002, reference compound], which “reduction of GSK-3β phosphorylation levels” value (GSK-3β) is on record?
Answer: ~60%

Question: With `N[C@@H](C[SeH])C(=O)O` [selenocysteine] as the compound, how does the “Akt activation: ratio” value (Akt) read?
Answer: induce activation of Akt above control (con) levels

Question: Which “number of free sulfhydryl groups in PP2A” value [3] does the source give for `CCN1C(=O)C=CC1=O` [NEM, N-ethylmaleimide, reference compound] here?
Answer: significantly reduced the number of free sulfhydryl groups

Question: What does the source list for `O=C(O)[C@@H]1[C@H](C(=O)O)[C@H]2CC[C@@H]1O2` [endothall A, reference compound]?
Answer: effect of PPP inhibitor pretreatment on sodium selenate induced Akt Ser473 dephosphorylation (Akt): completely blocked sodium selenate induced Akt dephosphorylation; phosphatase activity of immunoprecipitated PP2A (general intracellular pool) (PP2A): significantly reduced phosphatase activity
